Test results: patent US5238838A (Degussa Aktiengesellschaft, priority 1991, dated 1993)
Several values for one entry are separate records, joined by “and”; a condition that tells them apart may be missing. Equal entries are not always repeated. Entries after “also recorded” stand apart in the source; their conditions may differ. Where two headings read alike, the source gives them in different places.

Key:
strain DSM 6230 = assay: Growth of strain DSM 6230 on the test substances (OD660); type: cell-based; conditions: for OD660: 5 g/l of the substance in minimum medium with 1.0 g/l yeast extract, 36 h, 30° C.; for Growth of the strain on the substance (in words): strain DSM 6230
Method: 1367 strains were isolated during the screening program. These strains were incubated in 100 ml Erlenmeyer flasks containing 20 ml of the particular enrichment medium in a rotary agitator at 30° C. and 120 rpms. The optical density at 660 nm was taken as an indication for the cell growth.
(§1) In this test, various substances were examined for their induction action. At the same time, the growth on these compounds was followed. The medium used was a minimum medium with 1.0 g/l instead of 0.5 g/l yeast extract, to which 5 g/l of the substance to be tested were added in each instance. The culture without inductor contained 5 g/l yeast extract. All tests were carried out with 20 ml shaking cultures which were incubated 36 h at 30° C. and 120 rpms in a rotating [round]shaking machine. These cultures were inoculated with 1% of an initial culture of strain DSM 6230. L-carnitine amide was used as substrate for the enzyme test.
(§2) At the same time, the growth of the bacteria was followed in these carnitine amide concentrations. The culture conditions corresponded to those in example 3.

L-carnitine amidase [1] = assay: Test for the induction of L-carnitine amidase; type: cell-based, strain DSM 6230; conditions: for Activity (mU/mg) / Activity (mU/ml): 5 g/l of the substance as inductor, 36 h, L-carnitine amide as substrate
Method: as §1, §2

L-carnitine amidase [2] = assay: Substrate spectrum of L-carnitine amidase; type: biochemical, strain DSM 6230; conditions: substrate 50 mM; 30° C.; 100 mM potassium phosphate buffer pH 8
Method: The enzyme test was carried out at 30° C. in 100 mM potassium phosphate buffer pH 8. The substrate concentration was 50 mM.

L-carnitine amidase [3] = test system: L-carnitine amidase;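 note: additives put into the enzyme mixture before substrate, reaction then initiated by substrate addition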
Method: In order to test the influence of various additives on the enzyme activity, they were added to the test batches without substrate in a final concentration of 1 mM and 10 mM in each instance. The reaction batches were first incubated for 45 min. at 30° C. before the reaction was started by adding substrate solution.

[4] = carnitine amide concentration 0.5 g/l
[5] = carnitine amide concentration 1.0 g/l
[6] = carnitine amide concentration 2.0 g/l
[7] = carnitine amide concentration 3.0 g/l
[8] = carnitine amide concentration 5.0 g/l
[9] = carnitine amide concentration 10.0 g/l
[10] = carnitine amide concentration 15.0 g/l
[11] = carnitine amide concentration 20.0 g/l
[12] = carnitine amide concentration 25.0 g/l
[13] = additive 1 mM, 45 min. preincubation at 30° C.
[14] = additive 10 mM, 45 min. preincubation at 30° C.

C[N+](C)(C)CC(O)CC(N)=O (racemic) [DL-carnitine amide]
OD660 (strain DSM 6230): 2.7
OD660 nm (strain DSM 6230; [4]): 1.1
OD660 nm (strain DSM 6230; [5]): 1.3
OD660 nm (strain DSM 6230; [6]): 1.7
OD660 nm (strain DSM 6230; [7]): 2.0
OD660 nm (strain DSM 6230; [8]): 2.8
OD660 nm (strain DSM 6230; [9]): 3.9
OD660 nm (strain DSM 6230; [10]): 3.7
OD660 nm (strain DSM 6230; [11]): 3.6
OD660 nm (strain DSM 6230; [12]): 3.5
Growth of the strain on the substance (in words) (strain DSM 6230): Good growth
Activity (mU/mg) (L-carnitine amidase [1]): 1673 mU/mg
Activity (mU/ml) (L-carnitine amidase [1]): 8867 mU/ml
amidase activity (U/ml) (L-carnitine amidase [1]; [4]): 0.7 U/ml
amidase activity (U/ml) (L-carnitine amidase [1]; [5]): 2.4 U/ml
amidase activity (U/ml) (L-carnitine amidase [1]; [6]): 6.1 U/ml
amidase activity (U/ml) (L-carnitine amidase [1]; [7]): 7.3 U/ml
amidase activity (U/ml) (L-carnitine amidase [1]; [8]): 8.9 U/ml
amidase activity (U/ml) (L-carnitine amidase [1]; [9]): 8.6 U/ml
amidase activity (U/ml) (L-carnitine amidase [1]; [10]): 7.3 U/ml
amidase activity (U/ml) (L-carnitine amidase [1]; [11]): 7.1 U/ml
amidase activity (U/ml) (L-carnitine amidase [1]; [12]): 6.7 U/ml

C[N+](C)(C)CC(O)CC#N (racemic) [DL-carnitine nitrile]
OD660 (strain DSM 6230): 0.8
Activity (mU/mg) (L-carnitine amidase [1]): 88 mU/mg
Activity (mU/ml) (L-carnitine amidase [1]): 221 mU/ml

C[N+](C)(C)CC(O)CC(=O)[O-] (racemic) [DL-carnitine]
OD660 (strain DSM 6230): 2.5
Growth of the strain on the substance (in words) (strain DSM 6230): Good growth
Activity (mU/mg) (L-carnitine amidase [1]): 1255 mU/mg
Activity (mU/ml) (L-carnitine amidase [1]): 5773 mU/ml

C[C@@H](O)[C@H](N)C(N)=O [1-Thr-NH2]
Rel. activity (%) (L-carnitine amidase [2]): 0%

OCCS [2-mercaptoethanol]
Enzyme activity (%) (L-carnitine amidase [3]; [13]): 100%
Enzyme activity (%) (L-carnitine amidase [3]; [14]): 101%

CC=O [Acetaldehyde]
Enzyme activity (%) (L-carnitine amidase [3]; [13]): 83%
Enzyme activity (%) (L-carnitine amidase [3]; [14]): 81%

CC(N)=O [Acetamide]
Rel. activity (%) (L-carnitine amidase [2]): 0%
OD660 (strain DSM 6230): 1.0
Activity (mU/mg) (L-carnitine amidase [1]): 0 mU/mg
Activity (mU/ml) (L-carnitine amidase [1]): 0 mU/ml

C=CC(N)=O [Acrylamide]
Rel. activity (%) (L-carnitine amidase [2]): 0%
OD660 (strain DSM 6230): 0.8
Activity (mU/mg) (L-carnitine amidase [1]): 136 mU/mg
Activity (mU/ml) (L-carnitine amidase [1]): 170 mU/ml

O=[N+]([O-])[O-].[Ag+] [AgNO3]
Enzyme activity (%) (L-carnitine amidase [3]; [13]): 65%

[Ba+2].[Cl-].[Cl-] [BaCl2]
Enzyme activity (%) (L-carnitine amidase [3]; [13]): 102%
Enzyme activity (%) (L-carnitine amidase [3]; [14]): 105%

NC(=O)c1ccccc1 [Benzamide]
Rel. activity (%) (L-carnitine amidase [2]): 0%
OD660 (strain DSM 6230): 0.3
Activity (mU/mg) (L-carnitine amidase [1]): 0 mU/mg
Activity (mU/ml) (L-carnitine amidase [1]): 0 mU/ml

CCCC(N)=O [Butyramide]
Rel. activity (%) (L-carnitine amidase [2]): 0%
OD660 (strain DSM 6230): 0.9
Activity (mU/mg) (L-carnitine amidase [1]): 18 mU/mg
Activity (mU/ml) (L-carnitine amidase [1]): 54 mU/ml

[Ca+2].[Cl-].[Cl-] [CaCl2]
Enzyme activity (%) (L-carnitine amidase [3]; [13]): 103%
Enzyme activity (%) (L-carnitine amidase [3]; [14]): 90%

[Cl-].[Cl-].[Co+2] [CoCl2]
Enzyme activity (%) (L-carnitine amidase [3]; [13]): 90%
Enzyme activity (%) (L-carnitine amidase [3]; [14]): 76%
Reduction of the enzyme activity (in words) (L-carnitine amidase [3]; concentration of 10 mM): reduction of the enzyme activity

[Cl][Cu][Cl] [CuCl2]
Enzyme activity (%) (L-carnitine amidase [3]; [13]): 70%
Enzyme activity (%) (L-carnitine amidase [3]; [14]): 54%

N[C@@H]1CON=C1O [Cycloserine]
Enzyme activity (%) (L-carnitine amidase [3]; [13]): 96%
Enzyme activity (%) (L-carnitine amidase [3]; [14]): 97%

NC(=O)[C@H](N)Cc1ccccc1 [D-Phe-NH2]
Rel. activity (%) (L-carnitine amidase [2]): 0%

CC(C)C[C@@H](N)C(N)=O [D-leucine amide]
OD660 (strain DSM 6230): 0.8
Activity (mU/mg) (L-carnitine amidase [1]): 81 mU/mg
Activity (mU/ml) (L-carnitine amidase [1]): 170 mU/ml

C[N+](C)(C)CC(=O)CC(=O)[O-] [Dehydrocarnitine]
OD660 (strain DSM 6230): 0.8
Growth of the strain on the substance (in words) (strain DSM 6230): can not be metabolized or are metabolized very poorly
Activity (mU/mg) (L-carnitine amidase [1]): 279 mU/mg
Activity (mU/ml) (L-carnitine amidase [1]): 837 mU/ml
Induction of L-carnitine amidase (in words) (L-carnitine amidase [1]; strain DSM 6230): induced; also recorded: Inductors; also recorded: induce the enzyme

CCC(CC)(C(=O)O)C(=O)O [Diethyl malonic acid]
Enzyme activity (%) (L-carnitine amidase [3]; [13]): 92%
Enzyme activity (%) (L-carnitine amidase [3]; [14]): 68%
Reduction of the enzyme activity (in words) (L-carnitine amidase [3]; concentration of 10 mM): reduction of the enzyme activity

O=C(O)c1cc(SSc2ccc([N+](=O)[O-])c(C(=O)O)c2)ccc1[N+](=O)[O-] [Dinitrodithiodibenzoic acid]
Enzyme activity (%) (L-carnitine amidase [3]; [13]): 34%

CCN1C(=O)C=CC1=O [Ethyl maleinimide]
Enzyme activity (%) (L-carnitine amidase [3]): 99%
Enzyme activity (%) (L-carnitine amidase [3]; [13]): 100%

[Cl][Fe][Cl] [FeCl2]
Enzyme activity (%) (L-carnitine amidase [3]; [13]): 86%
Enzyme activity (%) (L-carnitine amidase [3]; [14]): 57%

[Cl][Fe]([Cl])[Cl] [FeCl3]
Enzyme activity (%) (L-carnitine amidase [3]; [13]): 87%
Enzyme activity (%) (L-carnitine amidase [3]; [14]): 46%

NCC(=O)NCC(N)=O [Gly-Gly-NH2]
Rel. activity (%) (L-carnitine amidase [2]): 0%

C[N+](C)(C)CC(=O)[O-] [Glycine betaine]
OD660 (strain DSM 6230): 2.9
Growth of the strain on the substance (in words) (strain DSM 6230): Good growth
Activity (mU/mg) (L-carnitine amidase [1]): 33 mU/mg
Activity (mU/ml) (L-carnitine amidase [1]): 183 mU/ml

[Cl][Hg][Cl] [HnCl2]
Enzyme activity (%) (L-carnitine amidase [3]; [13]): < 1%

O=C(O)CI [Iodoacetate]
Enzyme activity (%) (L-carnitine amidase [3]): 97% and 72%
Reduction of the enzyme activity (in words) (L-carnitine amidase [3]): reduction of the enzyme activity

C[C@H](N)C(N)=O [L-Ala-NH2]
Rel. activity (%) (L-carnitine amidase [2]): 0%
